Measured values reported in US9375530B2 (Allergan, Inc., priority 2007, dated 2016).
Read-outs that look alike come from different tables or passages of the source.

How the values were obtained:
kidney water channels = details: as illustrated in FIG. 1
[1] = in vivo, cited from earlier work; for % Bioavailability: human
[2] = human, in vivo; cited from earlier work
[3] = in vivo; cited from earlier work

NC(=O)CC[C@@H]1NC(=O)[C@H](Cc2ccccc2)NC(=O)[C@H](Cc2ccc(O)cc2)NC(=O)CCSSC[C@@H](C(=O)N2CCC[C@H]2C(=O)N[C@H](CCCN=C(N)N)C(=O)NCC(N)=O)NC(=O)[C@H](CC(N)=O)NC1=O [desmopressin, 1-desamino-8-D-arginine vasopressin]
blood concentration sufficient to activate kidney water channels and induce an antidiuretic effect (kidney water channels): about 0.8 pg/ml
% Bioavailability ([1]; po): 0.1-0.15%
% Bioavailability ([1]; sc): Subcutaneous (±90) %
ranges for peak blood levels ([1]; po): 10-20 fold
half life [2]: 1.5 to 2.0 h
undesirable side-effects [3]: high incidences of hyponatremia
